Results: publication PMC12703502, “Characterization of Novel Angiotensin-Converting Enzyme Inhibitory Peptides” (ACS Medicinal Chemistry Letters, 2025)
pIC50: −log10 of the molar value. Read-outs that look alike come from different tables or passages of the source. Where no end group is shown, it is not given here.

Columns and labels:
[1] = tested on: ACE C-domain and N-domain; parameters: method as in 2 sources, one per row (each row's own in cited_ref): ref 22 (probable, citation mark not shown) ||| ref 20 (probable, citation mark not shown); conditions: C-domain vs N-domain; ref 22 (probable, citation mark not shown); cited from earlier work
Description: Both drugs are tripeptides-analogues and present a proline-like C-terminal extremity to interact with the S2′ pocket of ACE, which is composed of Gln281, Tyr520, Lys511, His513, and His353. […] Captopril presents a smaller structure with a sulfhydryl group at the N-terminal to interact with the zinc ion.

[2] = target: Angiotensin-converting enzyme (ACE) (Homo sapiens, UniProt P12821); assay: ACE inhibition, Cushman & Cheung method with slight modifications (HHL substrate); format: biochemical
Description: Characterization of Novel Angiotensin-Converting Enzyme Inhibitory Peptides Camila Innocente-Alves1,2, Sara Luísa Sulzbach1, Emerson Gonçalves Moreira3, Raul Izidoro Carneiro3, Lucélia Santi1,2,3, Hugo Verli2,3, Walter Orlando Beys-da-Silva1,2,3* 1 Faculdade de Farmácia, Universidade Federal do Rio Grande do Sul, Porto Alegre, Brasil 2 Programa de Pós-Graduação em Biologia Celular e Molecular, Universidade Federal do Rio Grande do Sul, Porto Alegre, Brasil
3 Centro de Biotecnologia (CBiot), Universidade Federal do Rio Grande do Sul, Porto Alegre,
* corresponding author: walter.beys@ufrgs.br
Selection of the bioactive peptides
The peptides were selected from a previous virtual screening performed against our chemical library (PepDB), and evaluated in vitro for its antihypertensive potential. The structures of the peptides, […] […]
PyRosetta. […] The molecular docking result was evaluated usin g the Protein-Ligand Interaction Profile (PLIP) tool ( https://plip-tool.biotec.tu-dresden.de/) for characterization of the interactions and PyMOL ( https://www.pymol.org/) visualization. […]
The peptides were synthesized by AminoTech ( São Paulo, Brazil). […] The ability of the peptides to inhibit ACE activity was evaluated by the Cushman & Cheung method with slight modifications. Absorbances were read at 228 nm (Spectramax M2, Molecular Devices) and ACE inhibition was expressed as percentage of inhibition. […]

[3] = tested on: ACE; conditions: peony seed peptides, VLSGF vs HWS; cited from earlier work

Sequence of Angiotensin-converting enzyme (ACE) (P12821 30-1306, species assumed): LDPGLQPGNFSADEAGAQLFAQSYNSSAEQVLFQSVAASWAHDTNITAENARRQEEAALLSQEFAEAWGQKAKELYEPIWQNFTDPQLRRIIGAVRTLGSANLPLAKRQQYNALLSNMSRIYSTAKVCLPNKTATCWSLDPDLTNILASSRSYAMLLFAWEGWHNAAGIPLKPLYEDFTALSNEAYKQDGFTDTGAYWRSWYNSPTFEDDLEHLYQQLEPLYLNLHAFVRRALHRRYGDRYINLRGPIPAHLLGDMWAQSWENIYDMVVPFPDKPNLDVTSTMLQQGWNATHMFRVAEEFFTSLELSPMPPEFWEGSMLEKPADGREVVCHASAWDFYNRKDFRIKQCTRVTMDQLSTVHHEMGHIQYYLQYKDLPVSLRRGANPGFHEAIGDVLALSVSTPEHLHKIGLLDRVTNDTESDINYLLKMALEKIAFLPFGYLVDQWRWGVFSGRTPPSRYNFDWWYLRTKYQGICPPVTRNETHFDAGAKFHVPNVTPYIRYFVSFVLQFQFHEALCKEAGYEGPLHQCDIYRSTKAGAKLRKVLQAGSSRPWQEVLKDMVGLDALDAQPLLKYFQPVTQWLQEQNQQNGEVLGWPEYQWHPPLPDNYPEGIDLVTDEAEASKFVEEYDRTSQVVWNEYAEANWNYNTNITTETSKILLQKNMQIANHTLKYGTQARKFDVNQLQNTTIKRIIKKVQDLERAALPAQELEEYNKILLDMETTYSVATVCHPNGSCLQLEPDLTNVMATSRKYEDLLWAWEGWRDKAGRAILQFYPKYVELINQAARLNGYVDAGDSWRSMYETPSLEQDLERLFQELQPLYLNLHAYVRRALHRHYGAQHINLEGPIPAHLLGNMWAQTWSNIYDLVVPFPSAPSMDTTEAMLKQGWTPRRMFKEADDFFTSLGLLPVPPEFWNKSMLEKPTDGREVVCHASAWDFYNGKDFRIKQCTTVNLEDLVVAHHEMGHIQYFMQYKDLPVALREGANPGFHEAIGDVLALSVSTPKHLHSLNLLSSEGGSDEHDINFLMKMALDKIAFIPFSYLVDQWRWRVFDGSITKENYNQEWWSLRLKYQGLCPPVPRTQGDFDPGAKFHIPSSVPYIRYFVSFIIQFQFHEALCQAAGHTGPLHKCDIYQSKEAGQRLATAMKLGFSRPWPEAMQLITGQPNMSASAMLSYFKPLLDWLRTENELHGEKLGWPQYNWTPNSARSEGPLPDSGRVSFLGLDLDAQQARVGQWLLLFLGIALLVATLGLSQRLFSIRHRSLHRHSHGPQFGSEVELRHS

Question: With `NCCCC[C@H](N[C@@H](CCc1ccccc1)C(=O)O)C(=O)N1CCC[C@H]1C(=O)O` [Lisinopril] as the compound, how does the “affinity to ACE domains” value [1] read?
Answer: higher affinity to the C-domain

Question: With MSFLEHFLELK [PepDB_AHP1] as the compound, how does the pIC50 ([2]; Cushman & Cheung method, HHL substrate, absorbance 228 nm, at least triplicates, nonlinear regression GraphPad Prism 8.0.1, read-out: IC50) read?
Answer: 3.48

Question: With VWTNCYHLYPAH [PepDB_AHP4] as the compound, how does the pIC50 [2] read?
Answer: 4.05

Question: Which “relative IC50” value [3] does the source give for VLSGF here?
Answer: lower IC50
